Data as given in patent publication US20230303552A1, “ARYLSULFONYL DERIVATIVES AND THEIR USE AS MUSCARINIC ACETYLCHOLINE RECEPTOR M5 INHIBITORS” (Vanderbilt University, priority 2020, published 2023).

Molecular target: T1, human M5 receptors (hM5) (Homo sapiens, UniProt P08912)
T1 construct: expressed in transfected cells
T1 sequence (P08912 1-532): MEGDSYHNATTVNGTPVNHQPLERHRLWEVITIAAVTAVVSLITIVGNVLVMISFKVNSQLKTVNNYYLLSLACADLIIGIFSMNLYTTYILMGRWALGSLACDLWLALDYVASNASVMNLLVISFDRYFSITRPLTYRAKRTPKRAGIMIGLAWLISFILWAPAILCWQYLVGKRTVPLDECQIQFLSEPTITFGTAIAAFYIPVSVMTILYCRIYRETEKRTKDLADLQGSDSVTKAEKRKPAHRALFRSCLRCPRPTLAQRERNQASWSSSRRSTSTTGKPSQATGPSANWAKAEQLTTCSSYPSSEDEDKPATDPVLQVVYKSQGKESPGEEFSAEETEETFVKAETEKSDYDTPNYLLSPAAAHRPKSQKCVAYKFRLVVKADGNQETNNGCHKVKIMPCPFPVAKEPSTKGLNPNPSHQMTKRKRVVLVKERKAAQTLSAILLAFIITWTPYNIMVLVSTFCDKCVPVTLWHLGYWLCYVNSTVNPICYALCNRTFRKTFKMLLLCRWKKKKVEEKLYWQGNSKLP
Test: Cell-based functional calcium mobilization assay of mAChR M5 activity (inhibition of EC80 acetylcholine response) in CHO cells
Settings: CHO cells stably expressing hM5; for IC50: calcium flux (Fluo-4), EC80 acetylcholine addition; for EC80 MIN: minimum of EC80 acetylcholine response, normalized to maximum acetylcholine response
Description: All functional cell-based assays were performed essentially as previously described (Marlo et al., Mol.Pharm. 2009, 75(3), 577-588; Brady et al., J. Pharm. & Exp. Ther. 2008, 327, 941-953). Initial, single point (10 µM) competitive and non-competitive inhibitor characterization was performed in stable Chinese Hamster Ovary (CHO) cell lines constitutively expressing human M5 receptors. These were plated at 15,000 cells per 20 µL per well in Greiner 384-well black-walled, TC-treated, clear-bottomed plates (Fisher) in Ham’s F12 medium supplemented with 10% FBS and 20 mM HEPES. Cells were incubated overnight at 37° C. under 5% CO2. The following day, medium was exchanged with assay buffer (Hank’s Balanced Salt Solution supplemented with 20 mM HEPES and 2.5 mM Probenecid, pH 7.4) leaving 20 µL of assay buffer in each well. This was followed by the addition of 20 µL of 2.3 µM of Fluo-4 AM (Invitrogen) in assay buffer (final concentration 1.15 µM). The cells were then incubated 50 minutes at 37° C. under 5% CO2. The assay buffer plus dye was then exchanged with fresh assay buffer leaving a volume of 20 µL in each well. Test compounds were diluted into assay buffer to a 2X (20 µM) concentration in 0.2% dimethylsulfoxide (DMSO) in columns 3 - 22 with matching DMSO concentration in columns 1, 2, 23, and […]; compounds were added to the assay for a final concentration of 10 µM and a final DMSO concentration of 0.1%. Acetylcholine (Sigma-Aldrich) was prepared to provide 5X concentrations of EC20, EC80, and ECmax in the triple-addition assay, providing a signal window to view agonism, potentiation, and inhibition of the acetylcholine response as well as a means to normalize to the maximum acetylcholine response.
Either an FDSS (Hamamatsu) or Panoptic (WaveFront Biosciences) kinetic imaging plate reader was used for assay execution and measurement of calcium flux. After establishing baseline fluorescence, test compounds (20 µL) were added to the cells using the reader’s integrated pipettor and allowed to equilibrate for 140 seconds before addition of the EC20 concentration of acetylcholine (10 µL) along with vehicle in selected DMSO-only wells in the outer two columns. The EC80 concentration of acetylcholine (10 µL) was added 125 seconds after the EC20 addition along with ECmax concentration in the wells receiving vehicle in the second addition. The raw fluorescence data from each well was normalized to the corresponding initial fluorescence reading (static ratio). The maximum fluorescence value following each addition was determined and the minimum value within that same timeframe was subtracted for each well then normalized to the average of the ECmax maximum-minimum response, providing a %AChmax value for each addition for each well. The single point values represent mean values determined within the EC80 addition timeframe obtained from at least three independent determinations performed in triplicate or greater (error bars represent +/- SEM) unless otherwise specified.
Further characterization of competitive and non-competitive inhibitor compounds (compound potency and mAChR subtype-selectivity) was performed on the FDSS with calcium mobilization assays performed as previously described (Marlo et al., 2009; Brady et al., 2008) and in a format similar to that described above using the same reagents. CHO cells stably expressing hM1, hM2/Gqi5, hM3, hM4/Gqi5, hM5, rM1, rM2/Gqi5, rM3, rM4/Gqi5, or rMs were plated in the manner described above. A ten-point concentration range of test compound was serial diluted in assay buffer to 2X final concentration and acetylcholine was diluted in assay buffer to 5X of the EC20 and EC80 concentrations, determined empirically and 5X maximal (2 mM final concentration) stock concentrations. FDSS protocols were carried out as described above; the static ratio was calculated and the minimum response subtracted from the maximum response within the timeframe of each addition. […]

| SMILES | IC50 [µM] | EC80 MIN [%] |
| --- | --- | --- |
| O=C(Nc1ccc2scnc2c1)[C@H]1CCN(S(=O)(=O)c2ccc3c(c2)CCO3)C[C@@H]1F (racemic) [Compound 86, Trans-(rac)-N-(Benzo[d]thiazol-5-yl)-1-((2,3-Dihydrobenzofuran-5-yl)Sulfonyl)-3-Fluoropiperidine-4-Carboxamide] | 0.177 | 2 |
| CC1Cc2cc(S(=O)(=O)N3CCC(C(=O)Nc4ccc5scnc5c4)CC3)ccc2O1 (racemic) [Compound 87, (rac)-N-(benzo[d]thiazol-5-yl)-1-((2-methyl-2.3-dihydrobenzofuran-5-yl)sulfonyl)piperidine-4-carboxamide] | > 10 |  |
| Cc1nn(C)cc1S(=O)(=O)N1CC[C@H](C(=O)Nc2ccc3scnc3c2)[C@H](C)C1 (racemic) [Compound 95, cis-(rac)-,N^_ (benzo[d]thiazol-5-yl)-1-((1,3-dimethyl-1H-pyrazol-4-yl)sulfonyl)-3-methylpiperidine-4-carboxamide] | 4.49 | 5 |
| C[C@@H]1C[C@H](C(=O)Nc2ccc3scnc3c2)CCN1S(=O)(=O)c1ccc2c(c1)CCO2 (racemic) [Compound 97, cis-(rac)-N-(benzo[d]thiazol-5-yl)-1-((2,3-dihydrobenzofuran-5-yl)sulfonyl)-2-methylpiperidine-4-carboxamide] | 0.159 | 2 |
| Cc1nn(C)cc1S(=O)(=O)N1CC[C@@H](C(=O)Nc2ccc3scnc3c2)C[C@H]1C (racemic) [Compound 98, cis-(rac)-,N^_ (benzo[d]thiazol-5-yl)-1-((1,3-dimethyl-1H-pyrazol-4-yl)sulfonyl)-2-methylpiperidine-4-carboxamide] | 0.324 | 3 |
| C[C@@H]1C[C@H](C(=O)Nc2ccc3scnc3c2)CCN1S(=O)(=O)c1cccc2nsnc12 (racemic) [Compound 99, cis-(rac)-1-(benzo[c][1,2.5]thiadiazol-4-ylsulfonyl)-N-(benzo[d]thiazol-5-yl)-2-methylpiperidine-4-carboxamide] | 0.389 | 3 |

Other lines, results leading:

| IC50 [µM] | EC80 MIN [%] | SMILES |
| --- | --- | --- |
| 0.631 | 4 | C[C@@H]1CN(S(=O)(=O)c2ccc3c(c2)CCO3)CC[C@@H]1C(=O)Nc1ccc2scnc2c1 (racemic) [Compound 92, cis-(rac)-,N^_ (benzo[d]thiazol-5-yl)-1-((2,3-dihydrobenzofuran-5-yl)sulfonyl)-3-methylpiperidine-4-carboxamide] |
| 2.94 | 4 | C[C@@H]1CN(S(=O)(=O)c2ccc3ncsc3c2)CC[C@@H]1C(=O)Nc1ccc2scnc2c1 (racemic) [Compound 93, cis-(rac)-N-(benzo[d]thiazol-5-y1)-1-(benzo[d]thiazol-6-ylsulfonyl)-3-methylpiperidine-4-carboxamide] |
| 4.57 | 4 | C[C@@H]1CN(S(=O)(=O)c2ccc(Cl)nc2)CC[C@@H]1C(=O)Nc1ccc2scnc2c1 (racemic) [Compound 94, cis-(rac)-N-(benzo[d]thiazol-5-yl)-1-((6-chloropyridin-3-yl)sulfonyl)-3-methylpiperidine-4-carboxamide] |
| 1.11 | 3 | C[C@@H]1CN(S(=O)(=O)c2cccc3nsnc23)CC[C@@H]1C(=O)Nc1ccc2scnc2c1 (racemic) [Compound 96, cis-(rac)-1-(benzo[c][1,2,5]thiadiazol-4-ylsulfonyl)-N-(benzo[d]thiazol-5-yl)-3-methylpiperidine-4-carboxamide] |
| > 10 | 5 | C[C@@H]1CN(S(=O)(=O)c2cccnc2)CC[C@@H]1C(=O)Nc1ccc2scnc2c1 (racemic) [Compound 103, cis-(rac)-N-(benzo[d]thiazol-5-yl)-3-methyl-1-(pyridin-3-ylsulfonyl)piperidine-4-carboxamide] |
| 1.54 | 3 | C[C@H]1CN(S(=O)(=O)c2ccc3c(c2)CCO3)CC[C@@H]1C(=O)Nc1ccc2scnc2c1 (racemic) [Compound 116, trans-(rac)-N-(benzo[d]thiazol-5-yl)-1-((2,3-dihydrobenzofuran-5-yl)sulfonyl)-3-methylpiperidine-4-carboxamide] |
